Measured values reported in patent US20170291905A1, “ARGININE […] INHIBITORS AND USES THEREOF” (Epizyme, Inc., priority 2014, published 2017).
Structures can show the parent of a compound that is named as a salt.

molecular target: full-length human PRMT6 (Flag- and His-tagged) (Homo sapiens, UniProt Q96LA8); assay: PRMT6 biochemical assay (3H-SAM Flashplate, histone H4 36-50 K44me1 peptide); settings: 1 nM PRMT6, 30 min preincubation, 75 nM peptide
Excerpt: S-adenosylmethionine (SAM), S-adenosylhomocysteine (SAH), bicine, Tween20, dimethylsulfoxide (DMSO), bovine skin gelatin (BSG), sodium butyrate and Tris(2-carboxyethyl)phosphine hydrochloride solution (TCEP) were purchased from Sigma-Aldrich at the highest level of purity possible. ^3H-SAM was purchase from American Radiolabeled Chemicals with a specific activity of 80 Ci/mmol. 384-well streptavidin Flashplates were purchased from PerkinElmer.
Peptide representative of human histone H4 residues 36-50 was synthesized with an N-terminal linker-affinity tag motif and a C-terminal amide cap by 21st Century Biochemicals. The peptide was purified by high-performance liquid chromatography (HPLC) to greater than 95% purity and confirmed by liquid chromatography mass spectrometry (LC-MS). The sequence was Biot-Ahx-[…]-amide and contained a monomethylated lysine at position 44 (SEQ ID NO.:5).
Full-length human PRMT6 (NM_018137.2) transcript clone was amplified from an HEK 293 cDNA library, incorporating a flanking 5′ sequence encoding a FLAG tag ([…]) (SEQ ID NO.:6) fused directly to Ser 2 of PRMT6 and a 3′ sequence encoding a hexa His sequence (HHHHHH) (SEQ ID NO.: 17) fused directly to Asp 375. The amplified gene was subcloned into pFastBacMam (Viva Biotech).
Recombinant baculovirus were generated according to Bac-to-Bac kit instructions (Life Technologies). […] Infections were carried out at 37° C. for 48 hours, harvested by centrifugation, and stored at −80° C. for purification.
Column was washed with 20 mM imidazole in the same buffer and Flag-PRMT6-His was eluted with 150 mM imidazole. Pooled fractions were dialysed against buffer Ni-A and further purified by anti-flag M2 affinity chromatography. Flag-PRMT6-His was eluted with 200 ug/ml FLAG peptide in the same buffer. Pooled fractions were dialysed in 20 mM Tris, 150 mM NaCl, 10% glycerol and 5 mM β-mercaptoethanol, pH 7.8. The purity of recovered protein was 95%.
General Procedure for PRMT6 Enzyme Assays on Peptide Substrates.
The assays were all performed in a buffer consisting of 20 mM Bicine (pH=7.6), 1 mM TCEP, 0.005% BSG, and 0.002% Tween 20, prepared on the day of use. Compounds in 100% DMSO (1 ul) were spotted into a polypropylene 384-well V-bottom plates (Greiner) using a Platemate Plus outfitted with a 384-channel head (Thermo Scientific). DMSO (1 ul) was added to Columns 11, 12, 23, 24, rows A-H for the maximum signal control and 1 ul of SAH, a known product and inhibitor of PRMT6, was added to columns 11, 12, 23, 24, rows I-P for the minimum signal control. A cocktail (40 ul) containing the PRMT6 enzyme was added by Multidrop Combi (Thermo-Fisher). The compounds were allowed to incubate with PRMT6 for 30 min at room temperature, then a cocktail (10 ul) containing SAM and peptide was added to initiate the reaction (final volume=51 ul). The final concentrations of the components were as follows: PRMT6 was 1 nM, ^3H-SAM was 200 nM, non-radiolabeled SAM was 250 nM, peptide was 75 nM, SAH in the minimum signal control wells was 1 mM, and the DMSO concentration was 2%. The assays were stopped by the addition of non-radiolabeled SAM (10 ul) to a final concentration of 400 uM, which dilutes the ^3H-SAM to a level where its incorporation into the peptide substrate is no longer detectable. 50 ul of the reaction in the 384-well polypropylene plate was then transferred to a 384-well Flashplate and the biotinylated peptides were allowed to bind to the streptavidin surface for at least 1 hour before being washed once with 0.1% Tween20 in a Biotek ELx405 plate washer. The plates were then read in a PerkinElmer TopCount plate reader to measure the quantity of ^3H-labeled peptide bound to the Flashplate surface, measured as disintegrations per minute (dpm) or alternatively, referred to as counts per minute (cpm).
Where dpm=disintegrations per minute, cmpd=signal in assay well, and min and max are the respective minimum and maximum signal controls. […]

Sequence of full-length human PRMT6 (Flag- and His-tagged) (Q96LA8 with tags, fused parts or gaps): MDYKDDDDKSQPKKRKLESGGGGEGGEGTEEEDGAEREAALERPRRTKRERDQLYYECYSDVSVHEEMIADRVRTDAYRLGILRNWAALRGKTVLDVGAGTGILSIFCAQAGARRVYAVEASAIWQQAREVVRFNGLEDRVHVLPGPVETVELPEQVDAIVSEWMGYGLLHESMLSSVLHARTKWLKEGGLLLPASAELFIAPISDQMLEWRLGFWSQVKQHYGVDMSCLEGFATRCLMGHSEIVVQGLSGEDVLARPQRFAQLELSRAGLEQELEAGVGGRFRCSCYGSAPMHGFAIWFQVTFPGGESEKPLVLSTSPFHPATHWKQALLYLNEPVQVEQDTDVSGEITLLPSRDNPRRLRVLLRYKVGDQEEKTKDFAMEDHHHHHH

IC50	Structure (SMILES)
32 nM	CNCCN(C)Cc1c[nH]nc1C1CCC(COCC(C)C)(COCC(C)C)CC1 [compound 6]
62.7 nM	CCC1(CC)CC2(CCC(c3n[nH]cc3CN(C)CCNC)CC2)N(C)C1=O (centres unmarked) [compound 22, 3,3-diethyl-1-methyl-8-(4-((methyl(2-(methylamino)ethyl)amino)methyl)-1H-pyrazol-3-yl)-1-azaspiro[4.5]decan-2-one]
78.5 nM	CNCCN(C)Cc1c[nH]nc1[C@H]1CC[C@@H](COCC(F)(F)F)CC1 [compound 23, N1,N2-dimethyl-N1-((3-((1s,4s)-4-((2,2,2-trifluoroethoxy)methyl)cyclohexyl)-1H-pyrazol-4-yl)methyl)ethane-1,2-diamine]
21.6 nM	CNCCN(C)Cc1c[nH]nc1[C@H]1CC[C@H](COCC(F)(F)F)CC1 [compound 24, N1,N2-dimethyl-N1-((3-((1r,4r)-4-((2,2,2-trifluoroethoxy)methyl)cyclohexyl)-1H-pyrazol-4-yl)methyl)ethane-1,2-diamine]
60.3 nM	CNCCN(C)Cc1c[nH]nc1C1CCC(C)(C)[C@H](COCCCOC)C1 (stereo partly drawn) [compound 30, {2-[({3-[(3R)-3-[(3-methoxypropoxy)methyl]-4,4-dimethylcyclohexyl]-1H-pyrazol-4-yl}methyl)(methyl)amino]ethyl}(methyl)amine]
45.6 nM	CCOC[C@@H]1CC(c2n[nH]cc2CN(C)CCNC)CCC1(C)C (stereo partly drawn) [compound 31, {2-[({3-[(3R)-3-(ethoxymethyl)-4,4-dimethylcyclohexyl]-1H-pyrazol-4-yl}methyl)(methyl)amino]ethyl}(methyl)amine]
16.3 nM	CNCCN(C)Cc1c[nH]nc1C1CCC(C)(C)[C@H](CO)C1 (stereo partly drawn) [compound 32, [(1R)-2,2-dimethyl-5-[4-({methyl[2-(methylamino)ethyl]amino}methyl)-1H-pyrazol-3-yl]cyclohexyl]methanol]
20.8 nM	CCC1(CC)C[C@]2(CC[C@H](c3n[nH]cc3CN(C)CCNC)CC2)OC1=O [compound 33, (5s,8s)-3,3-diethyl-8-(4-((methyl(2-(methylamino)ethyl)amino)methyl)-1H-pyrazol-3-yl)-1-oxaspiro[4.5]decan-2-one]
10.6 nM	CCC1(CC)C[C@]2(CC[C@@H](c3n[nH]cc3CN(C)CCNC)CC2)OC1=O [compound 34, (5r,8r)-3,3-diethyl-8-(4-((methyl(2-(methylamino)ethyl)amino)methyl)-1H-pyrazol-3-yl)-1-oxaspiro[4.5]decan-2-one]

Second part, the molecule before the results:

Structure (SMILES)	IC50
CNCCN(C)Cc1c[nH]nc1C1CCC(OCCCOC)C2(CCCC2)C1 (mixture of isomers) [compound 19, N1-((3-(10-(3-methoxypropoxy)spiro[4.5]decan-7-yl)-1H-pyrazol-4-yl)methyl)-N1,N2-dimethylethane-1,2-diamine dihydrochloride]	191 nM
CNCCN(C)Cc1c[nH]nc1[C@@H]1CC[C@@H](OCCCOC)C2(CCCC2)C1 (racemic) [compound 26, N1-((3-((7R,10R)-10-(3-methoxypropoxy)spiro[4.5]decan-7-yl)-1H-pyrazol-4-yl)methyl)-N1,N2-dimethylethane-1,2-diamine]	107 nM
CNCCN(C)Cc1c[nH]nc1[C@@H]1CC[C@H](OCCCOC)C2(CCCC2)C1 (racemic) [compound 27, N1-((3-((7R,10S)-10-(3-methoxypropoxy)spiro[4.5]decan-7-yl)-1H-pyrazol-4-yl)methyl)-N1,N2-dimethylethane-1,2-diamine]	383 nM
CNCCN(C)Cc1c[nH]nc1C1CC(COCC2CC2)CC(COCC2CC2)C1 (centres unmarked) [compound 2]	741 nM
CNCCN(C)Cc1c[nH]nc1[C@H]1CC[C@@]2(CCCCO2)CC1 [compound 3]	27.7 nM
CNCCN(C)Cc1c[nH]nc1[C@H]1CC[C@]2(CCCOC2)CC1 [compound 4, N1-((3-((6s,9s)-2-oxaspiro[5.5]undecan-9-yl)-1H-pyrazol-4-yl)methyl)-N1,N2-dimethylethane-1,2-diamine]	33.1 nM
CNCCN(C)Cc1c[nH]nc1[C@H]1CC[C@@]2(CCCOC2)CC1 [compound 5, N1-((3-((6r,9r)-2-oxaspiro[5.5]undecan-9-yl)-1H-pyrazol-4-yl)methyl)-N1,N2-dimethylethane-1,2-diamine]	35.9 nM
CNCCN(C)Cc1c[nH]nc1C1CCC2(CCC(OC)CC2)CC1 (centres unmarked) [compound 9, N1-((3-(9-methoxyspiro[5.5]undecan-3-yl)-1H-pyrazol-4-yl)methyl)-N1,N2-dimethylethane-1,2-diamine]	13.5 nM
CNCCN(C)Cc1c[nH]nc1[C@H]1CC[C@]2(CCN(CCC(C)C)C2=O)CC1 [compound 10]	38.5 nM
CNCCN(C)Cc1c[nH]nc1[C@H]1CC[C@@]2(CCN(CCC(C)C)C2=O)CC1 [compound 11, (5r,8r)-2-isopentyl-8-(4-((methyl(2-(methylamino)ethyl)amino)methyl)-1H-pyrazol-3-yl)-2-azaspiro[4.5]decan-1-one]	18.6 nM
CNCCN(C)Cc1c[nH]nc1C1C[C@@H](C(=O)N(C)CC(C)C)C(C)(C)[C@H](C(=O)N(C)CC(C)C)C1 (some centres unmarked) [compound 12]	> 10000 nM
CNCCN(C)Cc1c[nH]nc1C1C[C@H](C(=O)NCCOC)C(C)(C)[C@H](C(=O)NCCOC)C1 (some centres unmarked) [compound 13]	> 10000 nM
CCN(C)C(=O)C1CC(c2n[nH]cc2CN(C)CCNC)CC(C(=O)NCCC(C)C)C1(C)C (centres unmarked) [compound 14, N1-ethyl-N3-isopentyl-N1,2,2-trimethyl-5-(4-((methyl(2-(methylamino)ethyl)amino)methyl)-1H-pyrazol-3-yl)cyclohexane-1,3-dicarboxamide]	> 10000 nM
CNCCN(C)Cc1c[nH]nc1C1=CCC(CF)(CF)CC1 [compound 15, N-((3-(4,4-bis(fluoromethyl)cyclohex-1-en-1-yl)-1H-pyrazol-4-yl)methyl)-N1,N2-dimethylethane-1,2-diamine]	16.7 nM
CNCCN(C)Cc1c[nH]nc1C1=CCC(COCC(F)(F)F)CC1 (centres unmarked) [compound 16, N1,N2-dimethyl-N1-((3-(4-((2,2,2-trifluoroethoxy)methyl)cyclohex-1-en-1-yl)-1H-pyrazol-4-yl)methyl)ethane-1,2-diamine]	17 nM
CNCCN(C)Cc1c[nH]nc1C1CCC(C)(C)[C@H](OCC(C)C)C1 (stereo partly drawn) [compound 20, ({3-[(3R)-4,4-dimethyl-3-(2-methylpropoxy)cyclohexyl]-1H-pyrazol-4-yl}methyl)(methyl)[2-(methylamino)ethyl]amine]	74.8 nM
CCC1CC(c2n[nH]cc2CN(C)CCNC)CC(C(=O)NCCOC)C1(C)C (centres unmarked) [compound 21, 3-ethyl-N-(2-methoxyethyl)-2,2-dimethyl-5-[4-([methyl[2-(methylamino)ethyl]amino]methyl)-1H-pyrazol-3-yl]cyclohexane-1-carboxamide dihydrochloride]	789 nM
CNCCN(C)Cc1cn(C)nc1C1CCC(C)(C)[C@@H](C(=O)NCC(C)C)C1 (some centres unmarked) [compound 25]	1610 nM
CNCCNCc1c[nH]nc1[C@H]1CC[C@@]2(CC1)CC(C)(C)CO2 [compound 28, N1-((3-((5s,8s)-3,3-dimethyl-1-oxaspiro[4.5]decan-8-yl)-1H-pyrazol-4-yl)methyl)-N2-methylethane-1,2-diamine]	262 nM
CNCCNCc1c[nH]nc1[C@H]1CC[C@]2(CC1)CC(C)(C)CO2 [compound 29, N1-((3-((5r,8r)-3,3-dimethyl-1-oxaspiro[4.5]decan-8-yl)-1H-pyrazol-4-yl)methyl)-N2-methylethane-1,2-diamine]	1910 nM
